Test results published in patent publication US7285396B1, “Aβ-heme peroxidase” (Children's Hospital & Research Center at Oakland, priority 2006, dated 2007).

Experiments:
[1] = target: T1, Aβ-heme peroxidase (Homo sapiens, UniProt P05067); experiment: Inhibition of Aβ-heme peroxidase activity (TMB assay or HPLC); inhibitor screen; assay type: biochemical; details: for identified as inhibitor of Aβ-heme peroxidase activity in library screen: TMB assay; for peroxidase activity of Aβ-heme: TMB assay or HPLC
T1 construct: Amyloid-β (Aβ) peptide (American Peptide, Sunnyvale, Calif.) is dissolved in distilled deionized water; purchased American Peptide, Sunnyvale, Calif
T1 sequence (P05067 672-711 limits assumed): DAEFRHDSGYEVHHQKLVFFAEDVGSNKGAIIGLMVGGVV

[2] = tested on: Tg2576 APPSw transgenic mouse; details: chronic dose of curcumin, APPSw mice; Lim 2001; cited from earlier work
[3] = tested on: Tg2576 APPSw transgenic mouse; details: curcumin-treated Tg2576 APPSw mouse; Lim et al 2001; cited from earlier work
[4] = target: Aβ(1-42) (Homo sapiens, UniProt P05067); details: reference 13; cited from earlier work
Aβ(1-42), sequence (P05067 672-713 limits assumed): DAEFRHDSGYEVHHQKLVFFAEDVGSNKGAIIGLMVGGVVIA

[5] = target: Aβ(1-40) (Homo sapiens, UniProt P05067); details: reference 13; cited from earlier work
Aβ(1-40), sequence (P05067 672-711 limits assumed): as the sequence (P05067 672-711 limits assumed) above

[6] = tested on: SHSY5Y cells; assay type: cell-based, human
Procedure: (§1) The effect of Aβ on heme synthesis was used to test the biological effect of the Aβ and heme interaction. We expected an increase in heme synthesis due to depletion of regulatory heme if the binding between heme and Aβ occurs in the cell. […] A 40% increase in heme synthesis was seen after 2 h incubation with 0.1 μM Aβ. A 4-fold and 13-fold increase in heme synthesis was seen after 1 h of incubation with 1 and 10 μM Aβ, respectively. A 2.5-fold and 18-fold increase in heme synthesis was seen after 2 h of incubation with 1 and 10 μM Aβ, respectively. An increase in the uptake of cofactors of heme biosynthesis is necessary to support heme synthesis. […] A 55% increase in iron was seen after 2 h of incubation with 0.1 μM Aβ. […] A 2-fold and 8-fold increase in iron uptake was seen after 2 h of incubation with 1 and 10 μM Aβ, respectively. The exposure of SHSY5Y cells to Aβ was not toxic as measured by trypan blue exclusion tests and compared with controls.

[7] = tested on: human neuroblastoma (SHSY5Y) cells; experiment: Effect of Aβ on heme synthesis in SHSY5Y cells; assay type: cell-based
Procedure: as §1

[8] = tested on: human neuroblastoma (SHSY5Y) cells; experiment: Effect of Aβ on intracellular iron / iron uptake in SHSY5Y cells; assay type: cell-based

## Cc1cc(N(C)C)cc2[s+]c3cc(N(C)C)cc(C)c3nc12 [1-9-dimethyl methylene blue]
[1]
  identified as inhibitor of Aβ-heme peroxidase activity in library screen: inhibitors

## O=C(O)CCNO [N-(2-carboxyethyl)hydroxylamine]
[1]
  identified as inhibitor of Aβ-heme peroxidase activity in library screen: inhibitors

## O=[N+]([O-])CCCNO [N-(3-nitropropyl)hydroxylamine]
[1]
  identified as inhibitor of Aβ-heme peroxidase activity in library screen: inhibitors

## OCCCCNO [N-(4-hydroxybutyl)hydroxylamine]
[1]
  identified as inhibitor of Aβ-heme peroxidase activity in library screen: inhibitors

## CC(=O)NO [N-(acetyl)hydroxylamine]
[1]
  identified as inhibitor of Aβ-heme peroxidase activity in library screen: inhibitors

## O=C(CNO)Cc1ccccc1 [N-(benzylcarbonyl)methylhydroxylamine]
[1]
  identified as inhibitor of Aβ-heme peroxidase activity in library screen: inhibitors

## ONCc1ccccc1 [N-benzylhydroxylamine (NBHA), N-benzylhydroxylamine]
[1]; 100 μM N-benzylhydroxylamine
  peroxidase activity of Aβ-heme: significantly inhibited

## ONC1CCCCC1 [N-cyclohexylhydroxylamine]
[1]
  identified as inhibitor of Aβ-heme peroxidase activity in library screen: inhibitors

## CC(C)NO [N-isopropylhydroxylamine]
[1]
  identified as inhibitor of Aβ-heme peroxidase activity in library screen: inhibitors

## CC(C)(C)NO [N-tert-butylhydroxylamine]
[1]
  identified as inhibitor of Aβ-heme peroxidase activity in library screen: inhibitors

## CN(C)c1ccc2nc3ccc(N)cc3[s+]c2c1.[Cl-] [azure A]
[1]
  identified as inhibitor of Aβ-heme peroxidase activity in library screen: inhibitors

## CNc1ccc2nc3ccc(N)cc3[s+]c2c1.[Cl-] [azure C]
[1]
  identified as inhibitor of Aβ-heme peroxidase activity in library screen: inhibitors

## COc1cc(/C=C/C(=O)CC(=O)/C=C/c2ccc(O)c(OC)c2)ccc1O [curcumin]
[2]
  insoluble Aβ: significantly reduces
  soluble Aβ: significantly reduces
[1]; 1 μM curcumin
  peroxidase activity of Aβ-heme: significantly inhibited
[3]
  oxidative damage: reduced oxidative damage

## C=CC1=C(C)c2cc3[n-]c(cc4[n-]c(cc5nc(cc1n2)C(C)=C5C=C)c(C)c4CCC(=O)O)c(CCC(=O)O)c3C.[Fe+2] [heme]
[4]
  aggregation of Aβ(1-42): prevented aggregation
[5]
  aggregation of Aβ(1-40): prevented aggregation

## CCNc1cc2[s+]c3cc(NCC)c(C)cc3nc2cc1C.[Cl-] [new methylene blue]
[1]
  identified as inhibitor of Aβ-heme peroxidase activity in library screen: inhibitors

## Cc1cc2nc3ccc(N(C)C)cc3[s+]c2cc1N.[Cl-] [toluidine blue]
[1]
  identified as inhibitor of Aβ-heme peroxidase activity in library screen: inhibitors

## Aβ: Amyloid-β (Aβ) peptide (American Peptide, Sunnyvale, Calif.)
[6]
  toxicity by trypan blue exclusion: not toxic
[7]; 0.1 μM Aβ, 2 h incubation
  increase in heme synthesis: 40%
[7]; 1 μM Aβ, 1 h incubation
  increase in heme synthesis: 4 fold
[7]; 1 μM Aβ, 2 h incubation
  increase in heme synthesis: 2.5 fold
[7]; 10 μM Aβ, 1 h incubation
  increase in heme synthesis: 13 fold
[7]; 10 μM Aβ, 2 h incubation
  increase in heme synthesis: 18 fold
[7]; Aβ 0.1, 1 and 10 μM
  synthesis of heme: significantly increased
[8]; 0.1 μM Aβ, 2 h incubation
  increase in iron: 55%
[8]; 1 μM Aβ, 1 h incubation
  increase in iron uptake: 4 fold
[8]; 10 μM Aβ, 1 h incubation
  increase in iron uptake: 12.5 fold
[8]; 10 μM Aβ, 2 h incubation
  increase in iron uptake: 8 fold
[8]; Aβ 0.1, 1 and 10 μM
  intracellular iron: significantly increased

## azure B
[1]
  identified as inhibitor of Aβ-heme peroxidase activity in library screen: inhibitors

## coproporphyrin I
[1]
  identified as inhibitor of Aβ-heme peroxidase activity in library screen: inhibitors

## coproporphyrin III
[1]
  identified as inhibitor of Aβ-heme peroxidase activity in library screen: inhibitors

## uroporphyrin I
[1]
  identified as inhibitor of Aβ-heme peroxidase activity in library screen: inhibitors

## uroporphyrin III
[1]
  identified as inhibitor of Aβ-heme peroxidase activity in library screen: inhibitors
